Data from publication PMC12307992, “The Potential Influence of Associated Antidepressants on the Pharmacokinetic Profile of Esketamine in Patients Affected by Treatment-resistant Depression” (Current Neuropharmacology, 2025).

Tests used:
[1] = set-up: method as in earlier work; conditions: ref Data on File. Esketamine. Summary of Clinical Pharmacology. Janssen Research & Development, LLC. EMDS-ERI-149761559; 2018; cited from earlier work
[2] = Adverse events 20 min post-esketamine (blood pressure, dizziness, confusion, ACES) in relation to serum levels; type: in vivo, patients
Experimental: Adverse events of intranasal administration of esketamine were evaluated 20 min post-esketamine initiation, such as changes in systolic and diastolic blood pressure, vertigo, dissociation, dizziness, sedation, headache, nausea and vomiting, and confusion.
(§1) To assess the changes in clinical status with treatment, we administered the following clinical scales at BL and one month after the first intranasal esketamine: clinician-rated Brief Psychiatric Rating Scale-version 4.0 (BPRS-24) to evaluate psychiatric symptoms; Montgomery-Åsberg Depression Rating Scale (MADRS) and Hamilton Depression Rating Scale (HAM-D) to assess depression; Hamilton Anxiety Rating Scale (HAM-A) to assess anxiety; Young Mania Rating Scale (YMRS) to assess manic symptoms, Clinical Global Impressions Scale (CGI) to assess the overall severity (CGI-S) and improvement (CGI-I), with CGI-S administered at both timepoints and CGI-I only at 1 month. Self-rated scales included the Beck Depression Inventory, 2nd edition (BDI-II), used to assess the cognitive aspects of depression (Beck’s cognitive triad), and the World Health Organization Quality of Life Scale-Brief (WHOQOL-BREF) to assess patient’s quality-of-life (QoL). For all scales save the WHOQOL-BREF, higher scores indicate higher psychopathology, while for the WHOQOL-BREF, higher scores reflect better QoL. Furthermore, we administered the clinician-rated Agitation-Calmness Evaluation Scale (ACES) to assess agitation vs. sedation during the first esketamine administration phase (BL to 72 hours). ACES is a single-item scale, in which scores from 1 to 3 are inversely related to the degree of agitation, and scores from 5 to 9 are directly related to calmness and sedation, until the score of 8 and 9, which indicate deep sleep and unarousable state, respectively. Finally, we evaluated dissociation with the Clinician-Administered Dissociative States Scale (CADSS) following the first esketamine administration (BL to 72 hours).
After having applied the Shapiro-Wilk test to ascertain the normality of distribution of our sample and the Mauchly sphericity test to assess the validity of the Analysis of Variance (ANOVA), we proceeded by performing parametric tests. We used the ANOVA-1way to compare samples for continuous variables and Fishers Least Significant Difference (LSD) to test differences in nominal variables. We used Grubbs’ test (alpha=0.05) to identify statistically significant outliers to exclude them from further analyses. Correlations were sought through Pearson’s r correlation coefficient. Besides concentrations, we calculated the area under the curve (AUC) as stated above. For all other calculations, we used the IBM Statistical Package for the Social Sciences (SPSS), version 29.0 (September 2022, Armonk, New York: IBM Corporation).

[3] = Clinical rating scales at baseline and one month after first intranasal esketamine; type: in vivo, patients
Description: as §1

[4] = after intranasal administration; cited from earlier work
[5] = phase 3 studies; cited from earlier work
[6] = Serum esketamine levels (LC-MS/MS) after intranasal esketamine 56 mg in TRD patients; conditions: for AUC: human, serum, other: intranasal, 56 mg, AUC value, 0-72 h
[7] = Salivary esketamine levels (LC-MS/MS) after intranasal esketamine 56 mg in TRD patients
[8] = 20 min post-esketamine, 15 patients
[9] = one month following initial esketamine administration, 15 patients

Structure (SMILES): CC[C@H]1OC(=O)[C@H](C)[C@@H](O[C@H]2C[C@@](C)(OC)[C@@H](O)[C@H](C)O2)[C@H](C)[C@@H](O[C@@H]2O[C@H](C)C[C@H](N(C)C)[C@H]2O)[C@](C)(OC)C[C@@H](C)C(=O)[C@H](C)[C@@H](O)[C@]1(C)O [clarithromycine]
- Effect of co-treatment on the PK profile of esketamine [1]: negligible effect

Structure (SMILES): CN[C@]1(c2ccccc2Cl)CCCCC1=O [esketamine, (S)-isomer of ketamine]
- Correlation (χ2) of confusion with serum esketamine levels ([2]; 20 min post-administration, p < 0.05): 3.830
- Correlation (χ2) of dizziness with serum esketamine levels ([2]; 20 min post-administration, p = 0.043): 4.114
- Patients with blood pressure reduced [2, 8]: 28.3%
- Patients with blood pressure relatively unchanged [2, 8]: 28.3%
- Patients with a rise in systolic blood pressure ([2]; 20 min post-esketamine, 23 of 53 patients): 43.4%
- Correlation (r) between serum esketamine values and changes in systolic blood pressure ([2]; at 20 min, p = 0.0003): 0.23
- Correlation (r) between esketamine levels and changes in ACES ([2]; at 20 minutes, p = 0.02): 0.1
- Global scores of all clinical scales (BPRS-Total, MADRS, BDI, WHOQOL-BREF or CGI) ([3]; 1 month after esketamine administration): improved
- YMRS values ([3]; absolute score, all patients): < 8
- Patients in whom HAM-A values dropped ([3]; baseline to 1 month): 51 of 53
- Patients with YMRS scores increased [3, 9]: 28.3%
- Patients with YMRS scores unchanged [3, 9]: 28.3%
- Patients with YMRS scores decreased ([3]; one month following initial esketamine administration, 23 patients): 43.4%
- elimination half-life (t½) [4]: 7 to 12 h
- time to reach maximum plasma concentrations (Tmax) [4]: 0.333 to 0.667 h
- Patients with a rise in blood pressure [5]: < 10%
- Serum esketamine levels after 72 hours ([6]; 56 mg intranasal, all groups): undetectable
- AUC value of patient greater than average value of the group ([6]; group 2 patient on oxcarbazepine vs group 2 average): 46%
- AUC ([6]; average of group, group 1 (paroxetine/fluoxetine)): 868 ng·h/mL
- AUC ([6]; average of group, group 2 (duloxetine)): 655 ng·h/mL
- AUC ([6]; average of group, group 3 (venlafaxine/desvenlafaxine)): 857 ng·h/mL
- AUC ([6]; average of group, group 4 (sertraline/citalopram/escitalopram)): 419 ng·h/mL
- AUC ([6]; average of group, group 5 (vortioxetine)): 439 ng·h/mL
- AUC ([6]; average of group, group 6 (TCAs/mirtazapine/trazodone)): 705 ng·h/mL
- AUC ([6]; single patient, group 1 patient on paroxetine, bupropion, valproate and atorvastatine): 628 ng·h/mL
- AUC ([6]; single patient, group 2 patient also on oxcarbazepine): 954 ng·h/mL
- AUC ([6]; single patient, group 3 patient also on valproate): 298 ng·h/mL
- AUC ([6]; single patient, group 3 patient also on valproate and atorvastatin): 599 ng·h/mL
- AUC ([6]; single patient, group 4 patient also on topiramate): 921 ng·h/mL
- AUC ([6]; single patient, group 5 patient also on prednisone): 957 ng·h/mL
- AUC ([6]; single patient, group 6 patient on mirtazapine and oxcarbazepine): 260 ng·h/mL
- Salivary levels of esketamine at 20 min relative to serum levels ([7]; 56 mg intranasal): several-fold greater than serum levels
- Esketamine levels in the saliva after 72 hours ([7]; a few patients on fluoxetine/paroxetine, duloxetine or venlafaxine/desvenlafaxine): still detectable
- concentration at 20 min ([7]; human, saliva, other: intranasal, 56 mg): > 1000 ng/mL
